# From US9012190B2, “Use of thiamine and nicotine adenine dinucleotide for butanol production” (Butamax Advanced Biofuels LLC, priority 2011, dated 2015)
# Legend:
# [1] = test system: isobutanol producing NYLA84 strain; test: Shake flask fermentation with addition of thiamine or yeast extract (Example 1); type: cell-based, Saccharomyces cerevisiae
# Description: The medium contained the following ingredients per L of water: 6.7 g Yeast Nitrogen Base (YNB) w/o amino acids (Difco 0919-15-3); 2.8 g Yeast Synthetic Drop-out Medium Supplement Without histidine, leucine, tryptophan, and uracil (Sigma Y2001); 20 mL of 1% (w/v) L-leucine; 4 mL of 1% (w/v) L-tryptophan; 5 g ethanol; 3 g glucose; and 1.0 mL of the ergosterol and Tween 80. In order to obtain 10 mL ergosterol and Tween 80 solution, 100 mg of ergosterol were dissolved in 5 mL 100% EtOH and 5 mL Tween 80 and then heated until sterile and dissolved (10 min at 70° C.).
# In the shake flask experiments described, the following were added to 125 mL shake flasks: 16 mL of the culture broth; 2 mL of the 1 M MES buffer; and 2 mL of the addition (H2O, YE, TH). The following additions were prepared: yeast extract (YE, final concentration 10 g/L); thiamine (TH, final concentration 6, 60, and 100 mg/L).
# In order to provide the culture broth, seed cultures were started in 125 mL shake flasks with air permeable lids (10 mL medium inoculated with 1 mL inoculum from a frozen vial). […] The OD was measured at λ=600 nm (Spectrophotometer from Thermo Electron Corporation Heλios Alpha, USA). […] Ergosterol and Tween 80 was added to the medium to a final concentration of 1 mL/L. Seed (10 mL) was inoculated into 2 L shake flask with 135 mL of the medium. Separately, 2 mL of the H2O, YE, TH additions were added to new 125 ml shake flasks. Into the 2 L shake flask, 16 mL of 1 M MES buffer was added and 5.3 mL of 50% (w/w) glucose solution. Eighteen (18) mL of this culture broth was distributed into the 125 mL shake flasks with prepared additions. The aerobic shake flasks with air permeable lid were incubated at 30° C. and 260 rpm. The anaerobic shake flasks were treated in anaerobic hood and incubated at 30° C. and 260 rpm. The anaerobic shake flasks were sampled in the anaerobic hood.
# The effect of thiamine on isobutanol production was analyzed using shake flask fermentation. Shake flask fermentations were performed under both aerobic and anaerobic conditions in the presence of water (negative control), yeast extract (YE, positive control, final concentration 10 g/L), or thiamine (TH, final concentration 100 mg/L) with isobutanol producing NYLA84 strain. The final biomass (X), isobutanol concentrations, and specific isobutanol production rates (qP) were measured and are shown in FIG. 1.
# [2] = test system: isobutanol producing NYLA84 strain; test: Shake flask cultivations with nicotinic acid, vitamin solution or YEP (Example 6); type: cell-based, Saccharomyces cerevisiae
# Description: (§1) The aerobic shake flasks with air permeable lid were incubated at 30° C. and 260 rpm.
# [3] = test system: isobutanol producing NYLA 84 strain; test: Aerobic shake flask range finding with nicotinic acid (Example 7); type: cell-based, Saccharomyces cerevisiae; settings: NA concentrations as low as 6 mg/L, all measurement points (2.00 h, 18.75 h, 24.5 h)
# Description: The strain used in this Example was the isobutanol producing NYLA 84 strain, described elsewhere herein. Vitamin stock solution contained biotin, 50 mg/L; Ca-panthotenate, 1 g/L; nicotinic acid, 1 g/L; myo-inositol, 25 g/l; thiamine.HCl, 1 g/L; pyridoxine hydrochloride, 1 g/L; p-aminobenzoic acid, 0.2 g/L; riboflavin, 0.2 g/L; and folic acid, 2 mg/L. One liter (1 L) of ergosterol and Tween 80 stock solution contains 10 g of ergosterol dissolved in 500 mL 100% ethanol solution and 500 mL Tween 80.
# Glucose and fermentation by-product analysis were determined by a Waters HPLC utilizing a Bio-Rad Aminex HPX-87H column with diode array (DA) operated at 210 nm and a refractive index (RI) detector at 50° C.
# Several seed cultures inoculated each with a 1 mL glycerol frozen stock vial were grown in 10 mL base medium for 24 h. At the start of the range finding experiment, seed cultures were pooled and 16 mL each of the pooled seed culture were distributed into 125 mL shake flasks, 2 mL of 1 M MES buffer added, and additionally 2 mL of (a) bidestilled water, (b-d) nicotinic acid (NA) stock solutions with 60 mg/L, 600 mg/L and 1000 mg/L of NA dissolved in bidestilled water, respectively, and (e) YE stock solution with 200 g/l YE. The aerobic shake flasks with air permeable lid were incubated at 30° C. and 260 rpm. Initial OD at λ=600 nm in the cultures was 0.764.
# [4] = test system: isobutanol producing NYLA84 strain; test: Shake flask cultivations with nicotinic acid, vitamin solution or YEP (Example 8); type: cell-based, Saccharomyces cerevisiae
# Description: as §1
# [5] = test system: BP1063 isobutanol producing strain; settings: bioreactor; NA concentrations of as low as 5 mg/L; vs water control
# Description: One liter (1 L) of inoculum medium contained: 6.7 g, Yeast Nitrogen Base w/o amino acids (Difco 0919-15-3); 2.8 g, Yeast Synthetic Drop-out Medium Supplement Without histidine, leucine, tryptophan and uracil (Sigma Y2001); 20 mL of 1% (w/v) L-leucine; 4 mL of 1% (w/v) L-tryptophan; 1 mL of ergosterol and Tween 80 solution; 3 g of ethanol; 3 g of glucose. Preparation of ergosterol and Tween 80 solution: for 10 mL of the solution, 100 mg of ergosterol was dissolve in 5 mL 100% EtOH and 5 mL Tween 80. It was heated at 70° C. for 10 minutes.
# A 125 mL shake flask was inoculated directly from a frozen vial by pipetting the whole vial culture (approx. 1 ml) into 10 mL of the inoculum medium. The flask was incubated at 260 rpm and 30° C. The strain was grown overnight until OD about 1.0. At this point four 2 L baffled shake flasks with 90 mL of the inoculum medium were inoculated from the overnight culture. […]
# OD at λ=600 nm was determined in a HEλIOS a spectrophotometer (Thermo Electron Corporation, USA). […] Glucose and fermentation by-product analysis were determined by HPLC utilizing a Shodex® SH-1011 column with a Shodex® SH-G guard column (both available from Waters Corporation, Milford, Mass.), with diode array (DA) and refractive index (RI) detector. […]
# Isobutanol was measured in oleyl alcohol, culture broth, and off-gas samples by GC method, HPLC method, and mass-spectrometry, respectively.
# [6] = aerobic shake flasks, thiamine 100 mg/L
# [7] = aerobic (25.8 h) and anaerobic (24.2 h) shake flasks
# [8] = isobutanol, glucose consumption, biomass
# [9] = aerobic and anaerobic shake flasks, sampled after 6.3 and 20.8 h
SMILES,"initial qP compared with yeast extract ([1]; aerobic flasks, thiamine 100 mg/L vs yeast extract 10 g/L)","initial qP higher than the control ([1]; aerobic flasks, thiamine 100 mg/L, vs water control) [%]","initial qP (specific isobutanol production rate) ([1]; aerobic flasks, thiamine final concentration 100 mg/L, first 24 fermentation hours) [g/g/h]",accumulation of keto-isovaleric acid in control shake flasks compared to flasks with the addition ([1]; aerobic shake flasks),"isobutanol titers at the three concentrations ([1]; aerobic shake flasks, final concentrations of 6, 60, and 100 mg/L thiamine)","final biomass concentration compared to the control [1, 6]","titers of isobutanol compared to the control [1, 6]","biomass formation compared to the negative control [2, 7]","consumption of glucose compared to the negative control [2, 7]","isobutanol production compared to the negative control [2, 7]","increase under anaerobic versus aerobic conditions [2, 8]",biomass titers compared to control culture without NA [3],isobutanol titers compared to control culture without NA [3],"biomass formation compared to the negative control [4, 9]","consumption of glucose compared to the negative control [4, 9]","isobutanol production compared to the negative control [4, 9]","increase under anaerobic versus aerobic conditions [4, 8]",final isobutanol titers in the aqueous phase [5]
Cc1ncc(C[n+]2csc(CCO)c2C)c(N)n1 [thiamine],about the same as achieved with yeast extract,75,0.14,several times higher,similar,higher,higher,,,,,,,,,,,
"O=C(O)c1cccnc1 [NA, nicotinic acid]",,,,,,,,increased,increased,increased,significantly more pronounced under anaerobic than under aerobic conditions,significantly increased,significantly increased,increased,increased,increased,significantly more pronounced under anaerobic than under aerobic conditions,improved
